Consider four cell lines from the supplement of paper PMC10307832.

Common to all, as to test: relative viability (nuclei count vs DMSO), 5 days (fraction); higher = more cells survive
Compound in the experiment “Sunitinib + Phenformin”: CCN(CC)CCNC(=O)c1c(C)[nH]c(/C=C2\C(=O)Nc3ccc(F)cc32)c1C [Sunitinib] + N=C(N)NC(=N)NCCc1ccccc1 [Phenformin] (partner 250 µM)
The method in brief: (§1)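 Lung cancer cell lines were seeded in 1536-well plates and dosed by pin tool the next day, with either a single drug or a fixed anchor-drug dose combined with five library-drug doses (not always all listed) spaced in √10 steps. Five days later, one step fixed the cells and stained their nuclei (final 0.05% Triton X-100, 1% formaldehyde, 1 ug/ml Hoechst), and nuclei were counted on 4× images. Relative viability is the nuclei count in treated wells divided by the count in vehicle wells, and each value is the median of duplicate plates.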

Compound in the experiment “Sunitinib + Pemetrexed”: CCN(CC)CCNC(=O)c1c(C)[nH]c(/C=C2\C(=O)Nc3ccc(F)cc32)c1C [Sunitinib] + Nc1nc2[nH]cc(CCc3ccc(C(=O)N[C@@H](CCC(=O)O)C(=O)O)cc3)c2c(=O)[nH]1 [Pemetrexed] (partner 0.2 µM)
The method in brief: as §1

Compound in the experiment “Sunitinib + Navitoclax”: CCN(CC)CCNC(=O)c1c(C)[nH]c(/C=C2\C(=O)Nc3ccc(F)cc32)c1C [Sunitinib] + CC1(C)CCC(c2ccc(Cl)cc2)=C(CN2CCN(c3ccc(C(=O)NS(=O)(=O)c4ccc(N[C@H](CCN5CCOCC5)CSc5ccccc5)c(S(=O)(=O)C(F)(F)F)c4)cc3)CC2)C1 [Navitoclax] (partner 0.5 µM)
The method in brief: as §1

Compound in the experiment “Sunitinib + Trametinib”: CCN(CC)CCNC(=O)c1c(C)[nH]c(/C=C2\C(=O)Nc3ccc(F)cc32)c1C [Sunitinib] + CC(=O)Nc1cccc(-n2c(=O)n(C3CC3)c(=O)c3c(Nc4ccc(I)cc4F)n(C)c(=O)c(C)c32)c1 [Trametinib] (partner 0.02 µM)
The method in brief:
as §1

As for NCI-H1734, the relative viability amounted to 0.345 with Sunitinib + Phenformin (first compound 0.02 µM); 0.46 with Sunitinib + Phenformin (first compound 0.06325 µM); 0.474 with Sunitinib + Phenformin (first compound 0.2 µM); 0.392 with Sunitinib + Phenformin (first compound 0.6325 µM); 0.358 in the experiment with Sunitinib + Phenformin (first compound 2 µM); 0.406 in the experiment with Sunitinib + Pemetrexed (first compound 0.02 µM). Besides, the relative viability was found to be 0.426 with Sunitinib + Pemetrexed (first compound 0.06325 µM); 0.396 with Sunitinib + Pemetrexed (first compound 0.2 µM); 0.411 with Sunitinib + Pemetrexed (first compound 0.6325 µM); 0.411 in the experiment with Sunitinib + Pemetrexed (first compound 2 µM); 0.785 in the experiment with Sunitinib + Navitoclax (first compound 0.02 µM); 0.815 with Sunitinib + Navitoclax (first compound 0.06325 µM). For the same cell line, the relative viability amounted to 0.954 in the experiment with Sunitinib + Navitoclax (first compound 0.2 µM); 0.846 with Sunitinib + Navitoclax (first compound 0.6325 µM); 0.906 in the experiment with Sunitinib + Navitoclax (first compound 2 µM); 0.595 in the experiment with Sunitinib + Trametinib (first compound 0.02 µM); 0.665 with Sunitinib + Trametinib (first compound 0.06325 µM); 0.747 with Sunitinib + Trametinib (first compound 0.2 µM). Besides, the relative viability in the experiment with Sunitinib + Trametinib (first compound 0.6325 µM) was determined as 0.653; in the experiment with Sunitinib + Trametinib (first compound 2 µM) it was 0.644.

For the cell line NCI-H1792, the relative viability turned out to be 0.381 with Sunitinib + Phenformin (first compound 0.06325 µM); 0.351 with Sunitinib + Phenformin (first compound 0.2 µM); 0.418 with Sunitinib + Phenformin (first compound 0.6325 µM); 0.31 with Sunitinib + Phenformin (first compound 2 µM); 0.619 with Sunitinib + Pemetrexed (first compound 0.02 µM); 0.942 in the experiment with Sunitinib + Pemetrexed (first compound 0.06325 µM). Further, the relative viability with Sunitinib + Pemetrexed (first compound 0.2 µM) was 1.26; with Sunitinib + Pemetrexed (first compound 0.6325 µM), 1.21; with Sunitinib + Pemetrexed (first compound 2 µM) it was 0.775; in the experiment with Sunitinib + Navitoclax (first compound 0.02 µM), 0.664; in the experiment with Sunitinib + Navitoclax (first compound 0.2 µM), 0.777; in the experiment with Sunitinib + Navitoclax (first compound 0.6325 µM), 0.537. The relative viability with Sunitinib + Navitoclax (first compound 2 µM) stood at 0.66; with Sunitinib + Trametinib (first compound 0.02 µM), 0.463; with Sunitinib + Trametinib (first compound 0.06325 µM), 0.417; with Sunitinib + Trametinib (first compound 0.2 µM), 0.533; with Sunitinib + Trametinib (first compound 0.6325 µM), 0.442; with Sunitinib + Trametinib (first compound 2 µM) it was 0.377.

On to H3255, for which the relative viability in the experiment with Sunitinib + Phenformin (first compound 0.02 µM) came out at 0.4; with Sunitinib + Phenformin (first compound 0.06325 µM) it was 0.383; with Sunitinib + Phenformin (first compound 0.2 µM), 0.344; with Sunitinib + Phenformin (first compound 0.6325 µM), 0.411; with Sunitinib + Phenformin (first compound 2 µM) it was 0.365; with Sunitinib + Pemetrexed (first compound 0.02 µM), 0.557. In addition, the relative viability came out at 0.558 with Sunitinib + Pemetrexed (first compound 0.06325 µM); 0.567 with Sunitinib + Pemetrexed (first compound 0.2 µM); 0.552 with Sunitinib + Pemetrexed (first compound 0.6325 µM); 0.612 with Sunitinib + Pemetrexed (first compound 2 µM); 0.477 in the experiment with Sunitinib + Navitoclax (first compound 0.02 µM); 0.52 with Sunitinib + Navitoclax (first compound 0.06325 µM). Also, the relative viability with Sunitinib + Navitoclax (first compound 0.2 µM) came out at 0.634; with Sunitinib + Navitoclax (first compound 0.6325 µM) it was 0.548; with Sunitinib + Navitoclax (first compound 2 µM) it was 0.519; in the experiment with Sunitinib + Trametinib (first compound 0.02 µM) it was 0.611; with Sunitinib + Trametinib (first compound 0.06325 µM), 0.658; with Sunitinib + Trametinib (first compound 0.2 µM) it was 0.652. Moreover, the relative viability in the experiment with Sunitinib + Trametinib (first compound 0.6325 µM) is 0.614; with Sunitinib + Trametinib (first compound 2 µM), 0.597.

NCI-H2126: the relative viability in the experiment with Sunitinib + Phenformin (first compound 0.02 µM) was 0.509; with Sunitinib + Phenformin (first compound 0.06325 µM), 0.534; with Sunitinib + Phenformin (first compound 0.2 µM), 0.537; with Sunitinib + Phenformin (first compound 0.6325 µM), 0.561; with Sunitinib + Phenformin (first compound 2 µM), 0.517; with Sunitinib + Pemetrexed (first compound 0.02 µM), 0.628. The relative viability was found to be 0.826 with Sunitinib + Pemetrexed (first compound 0.06325 µM); 0.777 with Sunitinib + Pemetrexed (first compound 0.2 µM); 0.786 in the experiment with Sunitinib + Pemetrexed (first compound 0.6325 µM); 0.751 in the experiment with Sunitinib + Pemetrexed (first compound 2 µM); 0.833 with Sunitinib + Navitoclax (first compound 0.02 µM); 0.865 with Sunitinib + Navitoclax (first compound 0.06325 µM). The relative viability with Sunitinib + Navitoclax (first compound 0.2 µM) was found to be 0.904; with Sunitinib + Navitoclax (first compound 0.6325 µM), 0.871; with Sunitinib + Navitoclax (first compound 2 µM) it was 0.798; with Sunitinib + Trametinib (first compound 0.02 µM), 0.545; with Sunitinib + Trametinib (first compound 0.06325 µM) it was 0.59; with Sunitinib + Trametinib (first compound 0.2 µM), 0.612. The figures for the relative viability in the experiment with Sunitinib + Trametinib (first compound 0.6325 µM) and with Sunitinib + Trametinib (first compound 2 µM) were 0.573 and 0.605, respectively.
